Results as given in patent publication US20110077272A1, “PULMONARY FORMULATIONS OF TRIPTANS” (Vectura Limited, priority 2008, published 2011).

Columns and labels:
[1] = Solubility in ethanol-based HFA 134a pMDI formulations; type: physicochemical
[2] = intranasal route (Duquesnoy et al 1998); cited from earlier work
[3] = Preclinical pulmonary administration of sumatriptan, irritancy to the airways; type: in vivo

SMILES: CNS(=O)(=O)Cc1ccc2[nH]cc(CCN(C)C)c2c1 [sumatriptan succinate]
- solubility [1]: low solubility

SMILES: CNS(=O)(=O)Cc1ccc2[nH]cc(CCN(C)C)c2c1 [sumatriptan]
- coefficient of variation for Tmax [2]: 62.8%
- respiratory changes ([3]; 1.9 mg/kg): not of degenerative nature
- respiratory changes ([3]; 9 mg/kg): degeneration occurred
